According to US7371536B2, “Methods for transporting vitamin C” (priority 1999, dated 2008):

Target: T1, human SVCT1 (Homo sapiens, UniProt Q9UHI7)
T1 construct: expressed in transfected cells; host or cells: Xenopus laevis oocytes injected with cRNA (vector pTLN2)
Experiment: Two-microelectrode voltage-clamp of Xenopus oocytes expressing human SVCT1
Format: cell-based
Description: Functional characterization in Xenopus oocytes—SVCT1 and SVCT2 cDNAs were subcloned into the pTLN2 vector (to improve functional expression in oocytes) and used for cRNA synthesis in vitro using the MEGAscript kit and T7 RNA polymerase (from Ambion). Oocytes were isolated from Xenopus laevis, treated with collagenase A and maintained at 18° C. in modified Barths' medium. Oocytes were injected with 15 ng SVCT1 or SVCT2 cRNA or water only. The radiotracer uptake and voltage-clamp experiments described below were conducted 2-5 days post-injection in standard medium of composition 100 mM NaCl, 2 mM KCl, 1 mM CaCl2, 1 mM MgCl2, and 10 mM HEPES (buffered to pH 7.5 with Tris base). For low-Na^+ or Na^+-free media, NaCl was replaced with choline chloride. For pH-dependence experiments, Na^+ media were buffered to between pH 5.5 and pH 8.0 using 0-5 mM MES, 0-5 mM HEPES and 0-5 mM Tris base. L-Ascorbic acid-containing solutions were always freshly prepared and used immediately. Radiotracer uptake was determined by incubating 8-12 oocytes for 30 min (within the time-course of linear uptake) in standard Na^+, low-Na^+ or Na^+-free media with 10-500 μM L-[1-^14C]ascorbic acid (final specific activity ≈0.3 GBq/mmol). Oocytes were solubilized with 10% SDS and carbon-14 content measured by liquid scintillation counting. A two-microelectrode voltage-clamp was used to measure currents associated with SVCT1 expressed in oocytes. Oocytes were superfused at 22° C. in standard Na^+ medium and clamped at −50 mV. Current was continuously monitored by sampling at 1 Hz. Test solutions were always washed out with substrate-free, Na^+-free medium at pH 7.5 for several minutes. Once again, saturation kinetics data were fit to a modified Hill equation in which I and Imax were replaced by uptake V and maximal velocity Vmax for analysis of radiotracer uptake data.

T1 sequence (Q9UHI7 whole entry): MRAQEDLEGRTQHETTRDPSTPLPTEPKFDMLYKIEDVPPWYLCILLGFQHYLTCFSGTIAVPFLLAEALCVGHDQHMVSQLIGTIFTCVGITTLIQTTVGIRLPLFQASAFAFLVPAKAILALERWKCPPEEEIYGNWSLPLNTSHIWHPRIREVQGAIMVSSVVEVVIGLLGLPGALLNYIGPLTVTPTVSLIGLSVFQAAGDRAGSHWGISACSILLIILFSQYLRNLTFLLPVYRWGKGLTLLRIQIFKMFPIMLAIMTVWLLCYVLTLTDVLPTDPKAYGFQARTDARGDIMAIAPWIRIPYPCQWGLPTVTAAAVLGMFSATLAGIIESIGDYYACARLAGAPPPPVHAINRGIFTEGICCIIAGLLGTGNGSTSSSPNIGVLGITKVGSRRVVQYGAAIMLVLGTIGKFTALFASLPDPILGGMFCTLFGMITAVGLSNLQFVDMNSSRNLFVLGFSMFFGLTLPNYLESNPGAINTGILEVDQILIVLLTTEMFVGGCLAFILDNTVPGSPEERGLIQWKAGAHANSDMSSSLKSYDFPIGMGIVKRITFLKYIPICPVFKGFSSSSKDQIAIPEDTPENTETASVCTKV

O=C1O[C@H]([C@@H](O)CO)C(O)=C1O [L-ascorbic acid]
reduction in current at pH 5.5 compared with pH 7.5 (500 μM L-ascorbic acid, −50 mV): > 60% | L-ascorbic acid-evoked current (500 μM, −50 mV, mean±SEM from eight oocytes): −114±20 nA | L-ascorbic acid-evoked reversible inward currents (in the presence of extracellular Na^+): up to −150 nA | K0.5 based on evoked currents (−50 mV, 100 mM Na^+, mean±propagated SEM from 5 oocytes): 54 ± 10 µM
